These results are taken from patent US9180135B2, “Miliacin and sphingolipids and/or phospholipids composition for hair and scalp care” (HITEX, priority 2013, dated 2015).

The assay concerns hair bulb root cells (keratinocytes). Nature of the assay: In vitro test: cellular proliferation of root cells (keratinocytes) in cultured human scalp fragments, anti-Ki67 immunohistochemistry. The assay is classed as cell-based. The note with it: cultures stopped on D4, 1.7 μg/ml of miliacin, Ki67-positive cells. As to the method:
This test consists of studying the cellular proliferation of root cells (keratinocytes). Indeed, as mentioned above, cellular proliferation at the hair bulb matrix promotes hair growth.
Composition A: 1.7 μg/ml of miliacin
Composition B: 150 μg/ml of the composition disclosed herein, Keranat, comprising: • 1.7 μg/ml of miliacin (1.1% of mixture) • 0.30 μg/ml of glycosylceramides and ceramides (0.21% of mixture) • 1.2 μg/ml of phospholipids (0.8% of mixture) Methodology
Human scalp fragments were obtained in plastic surgery from twelve different donors from the occipital area prior to hair implantation. They were deposited in inserts, in turn placed in culture wells. Culture medium specifically suitable for maintaining survival conditions (antibiotic, foetal calf serum (FCS)) was added to the bottom of the wells, running a passage by slow diffusion between the two compartments via a 3 μm thick porous membrane.
The composition is added in dilution at a predetermined dose, in the culture medium to promote contact with the hair bulbs. […]
The root proliferation was analysed by means of immunohistochemistry using an anti-Ki67 antibody marker of phase M, S, G1 and G2 cells in the cell cycle (mouse monoclonal antibody, MIB1 clone, diluted to 1:300, marketed by Dako). […]
On each bulb, the number of positive cells is counted with respect to a total of approximately 100 cells. […]

As for miliacin [Composition A], the “Results (% of proliferating cells compared to control)” value is reported as “+92%”. The “Results (% of proliferating cells compared to control)” value (listed as millet oil alone) was found to be 92%.
